In data set [1] the target is T1, UGT73C5 (Arabidopsis thaliana, UniProt Q9ZQ94).
T1 construct: recombinant GST-tagged UGT73C5
T1 sequence (Q9ZQ94 1-495): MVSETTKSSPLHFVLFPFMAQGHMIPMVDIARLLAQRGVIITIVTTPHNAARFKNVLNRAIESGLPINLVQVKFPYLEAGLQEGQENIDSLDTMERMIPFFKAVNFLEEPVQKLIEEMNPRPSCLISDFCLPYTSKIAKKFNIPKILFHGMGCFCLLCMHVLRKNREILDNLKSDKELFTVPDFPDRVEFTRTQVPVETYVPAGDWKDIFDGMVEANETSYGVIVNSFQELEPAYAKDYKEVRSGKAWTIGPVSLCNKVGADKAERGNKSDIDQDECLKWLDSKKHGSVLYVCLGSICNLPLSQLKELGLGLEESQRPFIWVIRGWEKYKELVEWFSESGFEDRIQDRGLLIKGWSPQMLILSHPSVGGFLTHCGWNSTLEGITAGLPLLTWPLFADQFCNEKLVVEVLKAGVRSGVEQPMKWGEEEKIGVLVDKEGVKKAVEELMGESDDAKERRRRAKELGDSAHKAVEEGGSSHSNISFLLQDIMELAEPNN
Kind of data set: preparative in vitro glucosylation, product purified by HPLC. Format: biochemical. The following applies: co-substrate UDP-glucose; glucosylation at C-23.

For data set [2], the target named is T1, UGT73C5. The data set is described as follows: in vitro glucosylation, product confirmed by HR-MS and HR-MS/MS. Format: biochemical. As to conditions: reference compound synthesis; glucosylation at C-23.
Substrate in the data set “purified protein”: CC(C)[C@@H](C)[C@@H](O[C@@H]1O[C@H](CO)[C@@H](O)[C@H](O)[C@H]1O)[C@H](O)[C@@H](C)[C@H]1CC[C@H]2[C@@H]3COC(=O)[C@H]4C[C@H](O)[C@H](O)C[C@]4(C)[C@H]3CC[C@]12C
Kind of data set: purified protein. It counts as biochemical, Arabidopsis thaliana. The following applies: co-substrate malonyl-CoA 2.5 mM, 50 mM sodium phosphate pH 8.0, 30 °C.

What is called Km is the concentration of substrate that gives half-maximal velocity.

Consider `CC(C)[C@@H](C)[C@@H](O)[C@H](O)[C@@H](C)[C@H]1CC[C@H]2[C@@H]3COC(=O)[C@H]4C[C@H](O)[C@H](O)C[C@]4(C)[C@H]3CC[C@]12C` [24-epiBL], for which the “preparative in vitro glucosylation, product purified by HPLC” value at UGT73C5 [1] is 24-epiBL (epiBL) as an acceptor were carried out, and the resulting epiBL-23-O-Glc was purified. Consider `CC(C)[C@H](C)[C@@H](O)[C@H](O)[C@@H](C)[C@H]1CC[C@H]2[C@@H]3COC(=O)[C@H]4C[C@H](O)[C@H](O)C[C@]4(C)[C@H]3CC[C@]12C` [brassinolide], for which, at UGT73C5 [2], the “in vitro glucosylation, product confirmed by HR-MS and HR-MS/MS” value is “BL-23-O-MalGlc as analytical reference, which were generated in vitro with recombinant UGT73C5 and PMAT1”.

B1: At5MAT (Arabidopsis thaliana) (protein)
chain: MVNFNSAVNILEVVQVSPPSSNSLTLPLTYFDLGWLKLHPVDRVLFYHVPELTRSSLISKLKSSLSATLLHYLPLAGRLVWDSIKTKPSIVYSPDDKDAVYLTVAESNGDLSHLSGDEPRPATEFHSLVPELPVSDESARVLAVQVTFFPNQGFSLGVTAHHAVLDGKTTAMFLKAWAHNCKQEQEALPHDLVPSLDRIIVQDPTGLETKLLNRWISASNNKPSLKLFPSKIIGSDILRVTYRLTREDIKKLRERVETESHAKQLRLSTFVITYAYVITCMVKMRGGDPTRFVCVGFASDFRSRLNPPLPPTFFGNCIVGSGDFDVKAEPILEEGEGKGFITAVETLTGWVNGLCPENIEKNMLLPFEAFKRMEPGRQMISVAGSTRLGIYGSDFGWGKPVKVEIVTIDKDASVSLSESGDGSGGVEVGVCLKKDDVERFGSLFSIGLE
notes: full ORF, GST fusion (pGEX-4T-2-At5MAT), E. coli BL21, glutathione Sepharose purified; GST tag kept
As to B1, the Km in the data set “purified protein” (240 min) is 71 µM.

B2: PMAT1 (Arabidopsis thaliana) (protein)
chain: MVNEEMESSLKVIDVARVTPSNSDSSESLTLPLTFFDLLWYKLHAVERVIFYKLTDASRPFFDSVIVPNLKTSLSSSLSHYLPLAGKLVWEPLDPKPKIVYTPNDAVSFTVAESNADFSRLTGKEPFPTTELYPLVPELHVSDDSASAVSFQVTLFPNQGFCISVNAHHAVLDGKTTTNFLKSWARTCKNQDSFLPQDLIPVYDRTVIKDPMDLDTKILNAWHRVAKVFTGGKEPENPKSLKLLWSPEIGPDVFRYTLNLTREDIQKLRERLKKESSSSSVSSSPKELRLSTFVIVYSYALTCLIKARGGDPSRPVGYGFAVDCRSLMVPPVPSSYFGNCVSACFKMSLTAETFMSEEGFLAAARMVSDSVEALDENVALKIPEILEGFTTLSPGTQVLSVAGSTRFGVYGLDFGWGRPEKVVVVSIDQGEAISFAESRDGSGGVELGFSLKKHEMDVLVDLLHKGLEN
notes: full ORF, GST fusion (pGEX-4T-2-PMAT1), E. coli BL21, glutathione Sepharose purified; GST tag kept
Take B2: the Km in the data set “purified protein” (20 min) stood at 235 µM.
